Starred links: 1 amine or outer side, 2 acyl side, 3 side chain; linkers in the order of their positions; H or OH if unused. Positions of bridges follow the written chain, without caps; N, C: chain ends. Residues, ends and D or L forms follow the SMILES beside them. *: point of attachment. C20 diacid = O=C(O)CCCCCCCCCCCCCCCCCCC(=O)*; C18 diacid = O=C(O)CCCCCCCCCCCCCCCCC(=O)*; γGlu = O=C(O)[C@H](CCC(=O)[*:2])N[*:1]
Tested on: ad libitum fed rat
Experiment: Assay (I) efficacy testing on appetite (food intake) using an ad libitum fed rat model
Format: in vivo, Sprague Dawley (SD) rats
Conditions: 3 nmol/kg
How it was run: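 Ad libitum fed Sprague Dawley rats, 200-250 g, singly housed on reversed light cycle, got one ip, po or sc dose of 0.01-3 mg/kg just before lights off; groups of 5-8 with vehicle control. Food intake recorded hourly for 7 h, then at 24 h and sometimes 48 h; Grubbs outliers excluded.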

CC[C@H](C)[C@H](NC(=O)[C@@H]1CCCN1C(=O)CNC(=O)[C@H](Cc1ccccc1)NC(=O)[C@H](CC(N)=O)NC(=O)[C@H](CC(N)=O)NC(=O)[C@H](CO)NC(=O)[C@H](CO)NC(=O)[C@H](Cc1c[nH]cn1)NC(=O)[C@H](Cc1c[nH]cn1)NC(=O)[C@H](CC(C)C)NC(=O)[C@H](Cc1ccccc1)NC(=O)[C@H](CCC(=O)O)NC(=O)[C@H](C)NC(=O)[C@H](CC(C)C)NC(=O)[C@H](CCCNC(=N)N)NC(=O)[C@H](CCC(N)=O)NC(=O)[C@@H](NC(=O)[C@H](C)NC(=O)[C@@H]1CSSC[C@H](NC(=O)[C@H](CCCCN)NC(=O)[C@H](CCC(=O)O)NC(=O)CC[C@H](NC(=O)CCCCCCCCCCCCCCCCC(=O)O)C(=O)O)C(=O)N[C@@H](CC(N)=O)C(=O)N[C@@H]([C@@H](C)O)C(=O)N[C@@H](C)C(=O)N[C@@H]([C@@H](C)O)C(=O)N1)[C@@H](C)O)C(=O)N[C@@H](CC(C)C)C(=O)N1CCC[C@H]1C(=O)N1CCC[C@H]1C(=O)N[C@H](C(=O)N[C@@H](CC(N)=O)C(=O)N[C@H](C(=O)NCC(=O)N[C@@H](CO)C(=O)N[C@@H](CC(N)=O)C(=O)N[C@H](C(=O)N[C@@H](Cc1ccc(O)cc1)C(N)=O)[C@@H](C)O)C(C)C)[C@@H](C)O [Example 42, N-alpha-[(S)-4-Carboxy-4-(17-carboxyheptadecanoylamino)butyryl]-Glu-[Glu14,His17]-pramlintide] ({C18 diacid-γGlu}-EKCNTATCATQRLAEFLHHSSNNFGPILPPTNVGSNTY-NH2; disulfide 3-8)
Food intake reduction 0-24 h 3 nmol/kg (%): 45% | Food intake reduction 24-48 h 3 nmol/kg (%): 5%

CC[C@H](C)[C@H](NC(=O)[C@@H]1CCCN1C(=O)CNC(=O)[C@H](Cc1ccccc1)NC(=O)[C@H](CC(N)=O)NC(=O)[C@H](CC(N)=O)NC(=O)[C@H](CO)NC(=O)[C@H](CO)NC(=O)[C@H](Cc1c[nH]cn1)NC(=O)[C@H](Cc1c[nH]cn1)NC(=O)[C@H](CC(C)C)NC(=O)[C@H](Cc1ccccc1)NC(=O)[C@H](CCC(=O)O)NC(=O)[C@H](C)NC(=O)[C@H](CC(C)C)NC(=O)[C@H](CCCNC(=N)N)NC(=O)[C@H](CCC(N)=O)NC(=O)[C@@H](NC(=O)[C@H](C)NC(=O)[C@@H]1CSSC[C@H](NC(=O)[C@H](Cc2c[nH]cn2)NC(=O)CC[C@H](NC(=O)CCCCCCCCCCCCCCCCCCC(=O)O)C(=O)O)C(=O)N[C@@H](CC(N)=O)C(=O)N[C@@H]([C@@H](C)O)C(=O)N[C@@H](C)C(=O)N[C@@H]([C@@H](C)O)C(=O)N1)[C@@H](C)O)C(=O)N[C@@H](CC(C)C)C(=O)N1CCC[C@H]1C(=O)N1CCC[C@H]1C(=O)N[C@H](C(=O)N[C@@H](CC(N)=O)C(=O)N[C@H](C(=O)NCC(=O)N[C@@H](CO)C(=O)N[C@@H](CC(N)=O)C(=O)N[C@H](C(=O)N[C@@H](Cc1ccc(O)cc1)C(N)=O)[C@@H](C)O)C(C)C)[C@@H](C)O [Example 18, N-alpha-[(S)-4-Carboxy-4-(19-carboxynonadecanoylamino)butyryl]-[His1,Glu14,His17]-pramlintide] ({C20 diacid-γGlu}-HCNTATCATQRLAEFLHHSSNNFGPILPPTNVGSNTY-NH2; disulfide 2-7)
Food intake reduction 0-24 h 3 nmol/kg (%): 40% | Food intake reduction 24-48 h 3 nmol/kg (%): 32%
